Measured values taken from publication PMC9457740, “GC-MS Chemical Profiling, Biological Investigation of Three Salvia Species Growing in Uzbekistan” (Molecules, 2022).

How the values were obtained:
Format in all cases: biochemical
[1] = metal chelating assay (EDTA chelating activity); settings: mean ± S.D.; NA: not active
From the text: (§1) Six in vitro assays were employed to evaluate the antioxidant activity of the three Salvia EOs. These were radical scavenging activity using 2,2-diphenyl-1-picryl-hydrazyl (DPPH), 2,2′-azino-bis(3-ethylbenzothiazoline-6-sulfonic acid) (ABTS) radical cation-based assay, total antioxidant capacity using cupric-reducing antioxidant capacity assay (CUPRAC), ferric-reducing antioxidant power assay (FRAP), EDTA chelating activity and phosphomolybdenum (PBD) assay.
(§2) In vitro assays were employed to evaluate the antioxidant activity of the three Salvia EOs using the 2,2-diphenyl-1-picryl-hydrazyl (DPPH), 2,2′-azino-bis(3-ethylbenzothiazoline-6-sulfonic acid) (ABTS) radical-cation-based assay, total antioxidant capacity using cupric-reducing antioxidant capacity assay (CUPRAC), ferric-reducing antioxidant power assay (FRAP), EDTA chelating activity and phosphomolybdenum (PBD) assay. These assays were performed according to previously described standard procedures, and values are expressed as Trolox or EDTA equivalent. The experimental procedures are given in supplemental materials. To provide a comparison with standard compounds, IC50 values (the half inhibitory concentration) were also calculated for DPPH, ABTS and metal chelating assays.

[2] = ferric-reducing antioxidant power assay (FRAP); settings: concentration at which absorbance is 0.5; mean ± S.D.
From the text: as §1, §2

[3] = ABTS radical cation-based assay; settings: mean ± S.D.
From the text: as §1, §2

[4] = cupric-reducing antioxidant capacity assay (CUPRAC); settings: concentration at which absorbance is 0.5; mean ± S.D.
From the text: as §1, §2

[5] = DPPH radical scavenging assay; settings: mean ± S.D. of three measurements; NA: not active
From the text: as §1, §2

[6] = phosphomolybdenum (PBD) assay; settings: concentration at which absorbance is 0.5; mean ± S.D.
From the text: as §1, §2

SMILES	Chelating IC50 [1]	FRAP IC50 [2]	ABTS IC50 [3]	CUPRAC IC50 [4]	DPPH IC50 [5]	PBD IC50 [6]
O=C(O)CN(CCN(CC(=O)O)CC(=O)O)CC(=O)O [EDTA]	40 ± 10 µg/mL	–	–	–	–	–
Cc1c(C)c2c(c(C)c1O)CCC(C)(C(=O)O)O2 (stereo not drawn) [Trolox]	–	170 ± 10 µg/mL	650 ± 90 µg/mL	440 ± 20 µg/mL	220 ± 10 µg/mL	680 ± 10 µg/mL
